Tests used:
Assay in all cases: KinaseProfiler off-target kinase profiling
Format in all cases: biochemical
Settings in all cases: 10 μM, ATP near Km
KIT = KIT (Homo sapiens (Human), UniProt P10721)
Experimental: (§1) Two representative compounds (Example 2, 14) of the invention were tested for off-target kinase activity at a concentration of 10 μM by Millipore, Inc. in their KinaseProfiler™ service against all the kinases available in their full kinase panel. These compounds were run in duplicate at a concentration of ATP near the Km for each individual kinase according to Millipore's specifications. The results are shown in Table B. Data are reported as percent of control (POC) and are the average of the two replicates.

FGFR1 = FGFR1 (Homo sapiens (Human), UniProt P11362)
Experimental: as §1

ERK2 = ERK2 (Homo sapiens (Human), UniProt P28482)
Experimental: as §1

FAK2 = FAK2 (Homo sapiens (Human), UniProt Q14289)
Experimental: as §1

KDR = KDR (Homo sapiens (Human), UniProt P35968)
Experimental: as §1

JNK2alpha2 = JNK2alpha2 (Homo sapiens (Human), UniProt P45984)
Experimental: as §1

Yes = Yes (Homo sapiens (Human), UniProt P07947)
Experimental: as §1

FGFR3 = FGFR3 (Homo sapiens (Human), UniProt P22607)
Experimental: as §1

AMPK(A1/B1/G1) = AMPK(A1/B1/G1) (Homo sapiens (Human), UniProt Q13131)
Chain of AMPK(A1/B1/G1) (Q13131 whole entry): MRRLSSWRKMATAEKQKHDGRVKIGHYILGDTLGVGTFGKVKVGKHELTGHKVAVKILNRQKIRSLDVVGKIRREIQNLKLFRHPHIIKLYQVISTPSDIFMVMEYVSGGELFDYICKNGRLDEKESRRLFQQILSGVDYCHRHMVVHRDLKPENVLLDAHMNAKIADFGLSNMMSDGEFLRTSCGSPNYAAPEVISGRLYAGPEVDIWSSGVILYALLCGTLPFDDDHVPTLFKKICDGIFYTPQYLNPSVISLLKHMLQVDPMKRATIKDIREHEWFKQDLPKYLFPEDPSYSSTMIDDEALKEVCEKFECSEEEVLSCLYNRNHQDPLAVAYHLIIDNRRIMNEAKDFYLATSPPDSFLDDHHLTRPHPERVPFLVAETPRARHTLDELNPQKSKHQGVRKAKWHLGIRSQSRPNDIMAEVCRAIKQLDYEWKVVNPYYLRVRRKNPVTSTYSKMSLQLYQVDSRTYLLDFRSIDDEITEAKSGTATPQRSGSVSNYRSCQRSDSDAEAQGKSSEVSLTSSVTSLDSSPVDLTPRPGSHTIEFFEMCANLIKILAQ
Chain of AMPK(A1/B1/G1) (Q9Y478 whole entry partner): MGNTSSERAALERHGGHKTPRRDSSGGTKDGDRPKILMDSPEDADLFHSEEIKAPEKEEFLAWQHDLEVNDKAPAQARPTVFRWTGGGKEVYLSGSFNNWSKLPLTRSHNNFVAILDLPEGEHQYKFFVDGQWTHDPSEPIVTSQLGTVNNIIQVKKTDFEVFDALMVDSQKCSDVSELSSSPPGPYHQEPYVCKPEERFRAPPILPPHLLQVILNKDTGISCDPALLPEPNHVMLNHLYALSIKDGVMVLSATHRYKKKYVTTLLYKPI
Chain of AMPK(A1/B1/G1) (P54619 whole entry partner): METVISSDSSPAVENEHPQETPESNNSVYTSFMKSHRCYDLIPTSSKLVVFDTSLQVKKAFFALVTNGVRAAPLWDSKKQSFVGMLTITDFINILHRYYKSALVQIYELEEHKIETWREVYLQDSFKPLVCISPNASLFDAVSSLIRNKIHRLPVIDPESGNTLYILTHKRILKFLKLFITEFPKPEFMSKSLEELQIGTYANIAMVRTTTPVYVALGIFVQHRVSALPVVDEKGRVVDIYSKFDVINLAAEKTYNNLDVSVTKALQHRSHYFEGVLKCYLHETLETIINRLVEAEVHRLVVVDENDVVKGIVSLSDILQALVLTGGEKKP
Experimental: as §1

Syk = Syk (Homo sapiens (Human), UniProt P43405)
Experimental: as §1

IKKalpha = IKKalpha (Homo sapiens (Human), UniProt O15111)
Experimental: as §1

TEC Activated = TEC Activated (Homo sapiens (Human), UniProt P42680)
Experimental: as §1

EphA7 = EphA7 (Homo sapiens (Human), UniProt Q15375)
Experimental: as §1

MAPKAP-K2 = MAPKAP-K2 (Homo sapiens (Human), UniProt P49137)
Experimental: as §1

PKCeta = PKCeta (Homo sapiens (Human), UniProt P24723)
Experimental: as §1

ROCK-I = ROCK-I (Homo sapiens (Human), UniProt Q13464)
Experimental: as §1

DAPK1 = DAPK1 (Homo sapiens (Human), UniProt P53355)
Experimental: as §1

MRCKbeta = MRCKbeta (Homo sapiens (Human), UniProt Q9Y5S2)
Experimental: as §1

AKT2 = AKT2 (Homo sapiens (Human), UniProt P31751)
Experimental: as §1

GRK5 = GRK5 (Homo sapiens (Human), UniProt P34947)
Experimental: as §1

EphB3 = EphB3 (Homo sapiens (Human), UniProt P54753)
Chain of EphB3 (P54753 34-998): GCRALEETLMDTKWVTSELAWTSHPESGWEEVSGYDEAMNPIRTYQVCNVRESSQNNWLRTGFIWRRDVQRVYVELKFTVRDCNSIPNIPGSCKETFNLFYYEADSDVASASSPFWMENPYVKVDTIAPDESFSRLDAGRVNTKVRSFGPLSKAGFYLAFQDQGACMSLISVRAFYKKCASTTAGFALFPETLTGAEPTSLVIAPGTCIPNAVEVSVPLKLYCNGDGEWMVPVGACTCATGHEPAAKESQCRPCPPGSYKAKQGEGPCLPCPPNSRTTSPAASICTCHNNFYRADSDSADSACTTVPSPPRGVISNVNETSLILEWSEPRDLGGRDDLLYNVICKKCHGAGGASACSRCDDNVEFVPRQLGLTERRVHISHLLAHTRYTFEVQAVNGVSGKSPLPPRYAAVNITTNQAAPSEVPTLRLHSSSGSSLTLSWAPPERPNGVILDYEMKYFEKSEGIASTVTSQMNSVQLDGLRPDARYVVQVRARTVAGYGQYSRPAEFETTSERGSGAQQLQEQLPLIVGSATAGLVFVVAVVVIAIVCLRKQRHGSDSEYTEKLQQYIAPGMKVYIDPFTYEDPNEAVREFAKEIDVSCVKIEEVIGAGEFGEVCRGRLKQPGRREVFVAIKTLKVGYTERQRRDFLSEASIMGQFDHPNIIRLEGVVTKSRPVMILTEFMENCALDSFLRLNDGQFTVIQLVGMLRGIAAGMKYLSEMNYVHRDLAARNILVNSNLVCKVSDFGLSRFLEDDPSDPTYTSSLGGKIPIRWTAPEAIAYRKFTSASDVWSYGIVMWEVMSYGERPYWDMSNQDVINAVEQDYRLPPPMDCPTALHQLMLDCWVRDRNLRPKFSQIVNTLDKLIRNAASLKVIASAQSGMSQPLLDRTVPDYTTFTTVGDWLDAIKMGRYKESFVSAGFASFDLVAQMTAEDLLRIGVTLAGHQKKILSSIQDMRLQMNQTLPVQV
Experimental: as §1

ZAP-70 = ZAP-70 (Homo sapiens (Human), UniProt P43403)
Experimental: as §1

IRR = IRR (Homo sapiens (Human), UniProt P14616)
Experimental: as §1

SRPK2 = SRPK2 (Homo sapiens (Human), UniProt P78362)
Experimental: as §1

Rsk3 = Rsk3 (Homo sapiens (Human), UniProt Q15349)
Experimental: as §1

Lck = Lck (Homo sapiens (Human), UniProt P06239)
Experimental: as §1

MARK1 = MARK1 (Homo sapiens (Human), UniProt Q9P0L2)
Experimental: as §1

MST1 = MST1 (Homo sapiens (Human), UniProt Q13043)
Chain of MST1 (Q13043 whole entry): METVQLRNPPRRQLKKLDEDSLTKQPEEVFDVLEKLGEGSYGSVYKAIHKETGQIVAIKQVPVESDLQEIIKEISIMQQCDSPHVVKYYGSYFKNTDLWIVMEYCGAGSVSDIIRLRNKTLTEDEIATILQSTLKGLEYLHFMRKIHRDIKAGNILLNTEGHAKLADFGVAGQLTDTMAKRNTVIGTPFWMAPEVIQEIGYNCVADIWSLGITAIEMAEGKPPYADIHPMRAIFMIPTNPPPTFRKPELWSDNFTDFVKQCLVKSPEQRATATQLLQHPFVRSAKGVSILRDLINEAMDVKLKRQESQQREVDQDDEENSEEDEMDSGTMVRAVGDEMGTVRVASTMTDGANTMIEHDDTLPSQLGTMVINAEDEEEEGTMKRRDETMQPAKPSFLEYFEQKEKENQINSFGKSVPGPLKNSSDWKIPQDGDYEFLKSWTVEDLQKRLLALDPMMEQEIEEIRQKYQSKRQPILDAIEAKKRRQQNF
Experimental: as §1

Pim-1 = Pim-1 (Homo sapiens (Human), UniProt P11309)
Chain of Pim-1 (P11309 whole entry): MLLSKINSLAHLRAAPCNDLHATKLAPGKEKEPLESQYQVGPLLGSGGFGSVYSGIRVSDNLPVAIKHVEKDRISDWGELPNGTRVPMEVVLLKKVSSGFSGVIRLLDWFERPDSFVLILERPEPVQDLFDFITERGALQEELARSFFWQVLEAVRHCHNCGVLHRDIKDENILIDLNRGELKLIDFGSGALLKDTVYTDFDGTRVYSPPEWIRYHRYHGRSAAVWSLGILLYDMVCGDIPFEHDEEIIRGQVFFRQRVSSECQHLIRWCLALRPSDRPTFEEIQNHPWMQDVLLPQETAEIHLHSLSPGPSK
Experimental: as §1

CK1delta = CK1delta (Homo sapiens (Human), UniProt P48730)
Experimental: as §1

CHK2 = CHK2 (Homo sapiens (Human), UniProt O96017)
Experimental: as §1

DCAMKL2 = DCAMKL2 (Homo sapiens (Human), UniProt Q8N568)
Experimental: as §1

Bmx = Bmx (Homo sapiens (Human), UniProt P51813)
Experimental: as §1

JNK3 = JNK3 (Homo sapiens (Human), UniProt P53779)
Experimental: as §1

PKCepsilon = PKCepsilon (Homo sapiens (Human), UniProt Q02156)
Chain of PKCepsilon (Q02156 whole entry): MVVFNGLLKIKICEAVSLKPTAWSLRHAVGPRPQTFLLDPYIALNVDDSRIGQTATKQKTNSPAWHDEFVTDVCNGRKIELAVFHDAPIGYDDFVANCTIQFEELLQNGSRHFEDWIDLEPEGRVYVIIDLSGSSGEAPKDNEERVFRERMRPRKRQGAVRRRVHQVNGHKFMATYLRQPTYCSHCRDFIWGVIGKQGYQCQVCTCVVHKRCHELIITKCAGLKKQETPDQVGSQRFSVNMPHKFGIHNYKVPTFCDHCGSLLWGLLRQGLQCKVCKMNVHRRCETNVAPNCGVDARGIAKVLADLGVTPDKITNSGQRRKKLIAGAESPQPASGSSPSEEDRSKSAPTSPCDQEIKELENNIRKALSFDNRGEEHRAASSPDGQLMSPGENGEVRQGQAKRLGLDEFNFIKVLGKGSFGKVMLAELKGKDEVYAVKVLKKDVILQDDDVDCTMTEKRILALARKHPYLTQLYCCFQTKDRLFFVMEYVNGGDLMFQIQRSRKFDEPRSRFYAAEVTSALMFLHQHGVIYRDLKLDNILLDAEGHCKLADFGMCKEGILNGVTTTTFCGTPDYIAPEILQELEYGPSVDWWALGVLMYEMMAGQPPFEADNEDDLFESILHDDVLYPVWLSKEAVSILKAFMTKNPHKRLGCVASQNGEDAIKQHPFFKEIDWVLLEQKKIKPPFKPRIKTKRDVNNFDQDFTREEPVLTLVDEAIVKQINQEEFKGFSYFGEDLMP
Experimental: as §1

TAO2 = TAO2 (Homo sapiens (Human), UniProt Q9UL54)
Experimental: as §1

MAPKAP-K3 = MAPKAP-K3 (Homo sapiens (Human), UniProt Q16644)
Chain of MAPKAP-K3 (Q16644 whole entry): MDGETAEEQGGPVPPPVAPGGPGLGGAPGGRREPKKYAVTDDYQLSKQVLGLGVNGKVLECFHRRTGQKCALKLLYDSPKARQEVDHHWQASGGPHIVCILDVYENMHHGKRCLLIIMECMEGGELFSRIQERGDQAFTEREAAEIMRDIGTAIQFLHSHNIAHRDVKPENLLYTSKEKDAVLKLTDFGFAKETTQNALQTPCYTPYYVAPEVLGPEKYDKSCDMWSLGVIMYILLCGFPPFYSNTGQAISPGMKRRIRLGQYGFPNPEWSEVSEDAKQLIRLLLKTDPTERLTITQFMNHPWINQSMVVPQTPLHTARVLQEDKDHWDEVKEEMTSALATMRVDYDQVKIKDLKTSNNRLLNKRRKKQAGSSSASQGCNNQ
Experimental: as §1

GSK3beta = GSK3beta (Homo sapiens (Human), UniProt P49841)
Experimental: as §1

MSSK1 = MSSK1 (Homo sapiens (Human), UniProt Q9UPE1)
Experimental: as §1

Plk3 = Plk3 (Homo sapiens (Human), UniProt Q9H4B4)
Experimental: as §1

Chain of KIT (P10721 26-976): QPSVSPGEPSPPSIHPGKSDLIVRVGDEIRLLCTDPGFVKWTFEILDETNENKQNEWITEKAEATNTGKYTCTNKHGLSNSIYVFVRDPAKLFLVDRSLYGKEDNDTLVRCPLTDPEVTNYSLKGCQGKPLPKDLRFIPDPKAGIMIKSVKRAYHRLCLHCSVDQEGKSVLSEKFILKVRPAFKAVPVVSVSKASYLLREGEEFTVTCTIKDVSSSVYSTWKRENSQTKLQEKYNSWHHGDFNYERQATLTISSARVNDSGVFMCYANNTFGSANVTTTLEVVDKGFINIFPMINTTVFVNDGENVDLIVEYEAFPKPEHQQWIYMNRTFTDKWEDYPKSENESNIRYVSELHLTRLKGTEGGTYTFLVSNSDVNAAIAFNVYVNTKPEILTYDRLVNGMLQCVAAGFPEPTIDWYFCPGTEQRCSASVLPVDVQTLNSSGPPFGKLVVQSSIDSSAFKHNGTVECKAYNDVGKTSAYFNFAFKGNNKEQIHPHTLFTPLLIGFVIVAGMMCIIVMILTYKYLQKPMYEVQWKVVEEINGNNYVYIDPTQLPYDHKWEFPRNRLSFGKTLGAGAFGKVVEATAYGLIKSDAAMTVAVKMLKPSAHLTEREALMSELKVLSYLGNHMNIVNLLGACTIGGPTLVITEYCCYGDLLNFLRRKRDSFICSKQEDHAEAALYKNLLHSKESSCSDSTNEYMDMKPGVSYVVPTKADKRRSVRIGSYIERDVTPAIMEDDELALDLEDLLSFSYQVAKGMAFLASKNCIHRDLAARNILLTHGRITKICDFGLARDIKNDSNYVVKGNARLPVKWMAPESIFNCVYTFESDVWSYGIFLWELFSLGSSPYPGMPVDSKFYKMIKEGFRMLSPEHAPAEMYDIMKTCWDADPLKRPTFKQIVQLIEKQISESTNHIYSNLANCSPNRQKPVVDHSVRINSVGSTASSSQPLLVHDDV

Row | Structure (SMILES) | Avg POC (KIT) | Avg POC (FGFR1) | Avg POC (ERK2) | Avg POC (FAK2) | Avg POC (KDR) | Avg POC (JNK2alpha2) | Avg POC (Yes) | Avg POC (FGFR3) | Avg POC (AMPK(A1/B1/G1)) | Avg POC (Syk) | Avg POC (IKKalpha) | Avg POC (TEC Activated) | Avg POC (EphA7) | Avg POC (MAPKAP-K2) | Avg POC (PKCeta) | Avg POC (ROCK-I) | Avg POC (DAPK1) | Avg POC (MRCKbeta) | Avg POC (AKT2) | Avg POC (GRK5) | further results
1 | COCCN1C[C@@H](NC(=O)Nc2c(C)c(-c3ccnc(C)c3)nn2-c2ccccc2)[C@H](c2ccc(F)c(F)c2)C1 [Example 2, 1-((3S,4R)-4-(3,4-difluorophenyl)-1-(2-methoxyethyl)pyrrolidin-3-yl)-3-(4-methyl-3-(2-methylpyridin-4-yl)-1-phenyl-1H-pyrazol-5-yl)urea] | 101.5 POC | 106.5 POC | 106.5 POC | 99.5 POC | 116.5 POC | 100 POC | 104 POC | 111.5 POC | 118 POC | 86 POC | 121 POC | 107 POC | 101.5 POC | 111 POC | 108.5 POC | 98 POC | 97 POC | 105 POC | 113 POC | 103.5 POC | Avg POC (EphB3): 105.5 POC; Avg POC (ZAP-70): 93 POC; Avg POC (IRR): 105 POC; Avg POC (SRPK2): 96.5 POC; Avg POC (Rsk3): 98 POC; Avg POC (Lck): 113 POC; Avg POC (MARK1): 97.5 POC; Avg POC (MST1): 94 POC; Avg POC (Pim-1): 99.5 POC; Avg POC (CK1delta): 108 POC; Avg POC (CHK2): 101 POC; Avg POC (DCAMKL2): 105 POC; Avg POC (Bmx): 115.5 POC; Avg POC (JNK3): 111.5 POC; Avg POC (PKCepsilon): 103.5 POC; Avg POC (TAO2): 97 POC; Avg POC (MAPKAP-K3): 101.5 POC; Avg POC (GSK3beta): 108 POC; Avg POC (MSSK1): 118 POC; Avg POC (Plk3): 101 POC
2 | COCCN1C[C@@H](NC(=O)Nc2c(C)c(-c3cnc(C)nc3)nn2-c2ccccc2)[C@H](c2cc(F)cc(F)c2)C1 [Example 14, 1-((3S,4R)-4-(3,5-difluorophenyl)-1-(2-methoxyethyl)pyrrolidin-3-yl)-3-(4-methyl-3-(2-methylpyrimidin-5-yl)-1-phenyl-1H-pyrazol-5-yl)urea] | 101.5 POC | 101.5 POC | 92.5 POC | 107 POC | 99 POC | 97 POC | 55.5 POC | 133.5 POC | 106.5 POC | 88 POC | 118.5 POC | 83.5 POC | 106.5 POC | 101 POC | 100 POC | 109.5 POC | 99.5 POC | 98.5 POC | 119.5 POC | 91 POC | Avg POC (EphB3): 138.5 POC; Avg POC (ZAP-70): 101 POC; Avg POC (IRR): 96 POC; Avg POC (SRPK2): 102.5 POC; Avg POC (Rsk3): 96 POC; Avg POC (Lck): 112.5 POC; Avg POC (MARK1): 98 POC; Avg POC (MST1): 97.5 POC; Avg POC (Pim-1): 103.5 POC; Avg POC (CK1delta): 108.5 POC; Avg POC (CHK2): 97.5 POC; Avg POC (DCAMKL2): 114.5 POC; Avg POC (Bmx): 105.5 POC; Avg POC (JNK3): 121 POC; Avg POC (PKCepsilon): 114.5 POC; Avg POC (TAO2): 102.5 POC; Avg POC (MAPKAP-K3): 105.5 POC; Avg POC (GSK3beta): 114.5 POC; Avg POC (MSSK1): 109 POC; Avg POC (Plk3): 93.5 POC

— patent US9896435B2, “N-pyrrolidinyl,N′-pyrazolyl-urea, thiourea, guanidine and cyanoguanidine compounds as TrkA kinase inhibitors” (Array BioPharma Inc., priority 2012, dated 2018)
